Measured values reported in US10494384B2, “Urea peptoid boric acid compound, pharmaceutical composition thereof, preparation method therefor, and uses thereof” (Peking University, priority 2015, dated 2019).
Like-named read-outs stand apart in the source and are kept apart here.

Legend:
[1] = target: T1, 20S proteasome extracted from rat liver (PGPH) (Rattus norvegicus, UniProt P28073+Q9JHW0); experiment: inhibition of 20S proteasome, PGPH activity (fluorescent peptide); format: biochemical; settings: for inhibition at 0.2 µM / inhibition at 2 µM / inhibition at 20 µM: rat liver 20S proteasome, 37° C., 1 h, read-out: inhibition rates (%) PGPH
T1 construct: 20S proteasome extracted from rat liver; from tissue; host or cells: rat liver
Protocol: (§1) 1 μg of 20S proteasome extracted from rat liver was incubated with a 100 μL solution containing various concentrations of the present compounds, 50 μM fluorescent peptides and 20 mM Tris-HCl at 37° C. for 1 h, respectively. […] 0.1% DMSO was used as a solvent control. Compared with the fluorescence of solvent control, an inhibition rate or IC50 value was calculated.

[2] = system: MCF-7, breast cancer; experiment: preliminary anti-tumor screening in vitro, SRB method; format: cell-based; settings: Homo sapiens, read-out: inhibition rates (%) MCF-7; for inhibition at 0.1 µM: MCF7, 0.1 μM; for inhibition at 1 µM: MCF7, 1 μM; for inhibition at 10 µM: MCF7, 10 μM
Outline: (§2)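 Inhibition rates measured at 0.1, 1 or 10 μM compound; cell growth read by MTT for Hela, SRB for BGC-823, MCF-7 and A549.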

[3] = system: BGC-823, liver cancer; experiment: as above; format: cell-based; settings: Homo sapiens, read-out: inhibition rates (%) BGC-823
Outline: as §2

[4] = system: A549, human lung cancer; experiment: as above; format: cell-based; settings: read-out: inhibition rates (%) A549
Outline: as §2

[5] = target: T2, 20S proteasome extracted from rat liver (T-L) (Rattus norvegicus, UniProt P40112+Q9JHW0); experiment: inhibition of 20S proteasome, T-L activity (fluorescent peptide); format: biochemical; settings: for inhibition at 0.2 µM / inhibition at 2 µM / inhibition at 20 µM: rat liver 20S proteasome, 37° C., 1 h, read-out: inhibition rates (%) T-L
T2 construct: 20S proteasome extracted from rat liver; from tissue; host or cells: rat liver
Protocol: as §1

[6] = system: Hela, human cervical carcinoma; experiment: preliminary anti-tumor screening in vitro, MTT method; format: cell-based; settings: read-out: inhibition rates (%) Hela
Outline: as §2

[7] = target: T3, 20S proteasome extracted from rat liver (CT-L) (Rattus norvegicus, UniProt P18421+P28075); experiment: inhibition of 20S proteasome, CT-L activity (fluorescent peptide); format: biochemical; settings: for inhibition at 0.2 µM / inhibition at 2 µM / inhibition at 20 µM: rat liver 20S proteasome, 37° C., 1 h, read-out: inhibition rates (%) CT-L
T3 construct: 20S proteasome extracted from rat liver; from tissue; host or cells: rat liver
Protocol: as §1

[8] = system: MGC803 stomach cancer cells; experiment: anti-tumor activity in vitro (IC50), MTT; format: cell-based; settings: Homo sapiens, MGC-803, 72 h
Protocol: (§3) Cancer cells were cultured in vitro. When cell growth reached logarithmic phase, the cells were collected and centrifuged at 1000 rpm for 5 min, before the supernate was removed and the cells were suspended in a moderate amount of medium, and then the concentration of cell was adjusted to 3.5×10^4/mL. The cell suspension was added into a 96-well plate with 100 μL per well and cultured in a cell incubator (37° C., 5% CO2) for 24 h. Then test drugs of different end concentrations were added, and the negative control group was added DMSO (end concentration was 0.5%), while each group afforded three repetitive holes. After cultivation for another 72 h in the cell incubator, a solution containing 5 mg/ml MTT (20 μL) was added into each well and the 96-well plate was placed at 37° C. for 3 h. To each well was added 150 μL DMSO, after oscillation in a shaking table for 5 min, the optical density (OD) values at 492 nm/620 nm were measured. IC50 values were calculated by Prism Graphpad statistical software.

[9] = system: SKOV3; experiment: anti-tumor activity in vitro (IC50), MTT; format: cell-based; settings: Homo sapiens, SK-OV-3, 72 h
Protocol: as §3

[10] = system: MDA-MB-231; experiment: anti-tumor activity in vitro (IC50), MTT; format: cell-based; settings: Homo sapiens, 72 h
Protocol: as §3

[11] = system: HCT116; experiment: anti-tumor activity in vitro (IC50), MTT; format: cell-based; settings: Homo sapiens, HCT-116, 72 h
Protocol: as §3

[12] = system: A549; experiment: anti-tumor activity in vitro (IC50), MTT; format: cell-based; settings: Homo sapiens, 72 h
Protocol: as §3

[13] = system: MKN45; experiment: anti-tumor activity in vitro (IC50), MTT; format: cell-based; settings: Homo sapiens, MKN-45, 72 h
Protocol: as §3

[14] = system: SW1990; experiment: anti-tumor activity in vitro (IC50), MTT; format: cell-based; settings: Homo sapiens, 72 h
Protocol: as §3

[15] = system: HepG2 liver cancer cells; experiment: anti-tumor activity in vitro (IC50), MTT; format: cell-based; settings: Homo sapiens, 72 h
Protocol: as §3

[16] = system: 95D; experiment: anti-tumor activity in vitro (IC50), MTT; format: cell-based; settings: Homo sapiens, 72 h
Protocol: as §3

[17] = system: HL-60; experiment: anti-tumor activity in vitro (IC50), MTT; format: cell-based; settings: Homo sapiens, 72 h
Protocol: as §3

[18] = system: BEL7404; experiment: anti-tumor activity in vitro (IC50), MTT; format: cell-based; settings: Homo sapiens, BEL-7404, 72 h
Protocol: as §3

[19] = system: Hela; experiment: anti-tumor activity in vitro (IC50), MTT; format: cell-based; settings: Homo sapiens, 72 h
Protocol: as §3

[20] = stomach cancer cells, MTT, read-out: IC50 (μM) MGC803
[21] = liver cancer cells, read-out: IC50 (μM) HepG2

SMILES	inhibition at 0.2 µM [1] [%]	inhibition at 2 µM [1] [%]	inhibition at 20 µM [1] [%]	inhibition at 0.1 µM [2] [%]	inhibition at 1 µM [2] [%]	inhibition at 10 µM [2] [%]	inhibition at 0.1 µM [3] [%]	inhibition at 1 µM [3] [%]	inhibition at 10 µM [3] [%]	inhibition at 0.1 µM [4] [%]	inhibition at 1 µM [4] [%]	inhibition at 10 µM [4] [%]	inhibition at 0.1 µM [6] [%]	inhibition at 1 µM [6] [%]	inhibition at 10 µM [6] [%]	IC50 ([8]; MTT, read-out: IC50 MGC803) [µM]	IC50 [8, 20] [µM]	IC50 ([15]; read-out: IC50 HepG2) [µM]	IC50 [15, 21] [µM]	IC50 [19] [nM]	other results
COc1ccc(NC(=O)[C@H](Cc2ccccc2)NC(=O)N[C@@H](CC(C)C)B2OC3C[C@H]4C[C@H](C4(C)C)[C@@]3(C)O2)cc1 (stereo partly drawn) [Example 9, N-L-leucine borate pinanediol ester-N′-(p-methoxy-phenylcarbamoyl)-L-phenylalanine-urea]	1.67	6.26	34.1	6.66	11.7	13.8	8.33	7.84	14.7	4.05	10.3	36.2	11.8	14.3	32.1						melting point: 78 to 80 °C; inhibition at 0.2 µM [5]: 1.54%; inhibition at 2 µM [5]: 9%; inhibition at 20 µM [5]: 21.5%; inhibition at 0.2 µM [7]: -12.2%; inhibition at 2 µM [7]: 44.9%; inhibition at 20 µM [7]: 76.8%
COc1ccc(OC)c(CNC(=O)N[C@@H](Cc2ccccc2)C(=O)N[C@@H](CC(C)C)B2OC3CC4CC(C4(C)C)[C@]3(C)O2)c1 (stereo partly drawn) [Example 19, N-L-phenylalanyl-L-leucine borate pinanediol ester-N′-(2,5-dimethoxy-benzylamine)-urea]	16.9	82.3	97.2	23.4	38.1	61.7	43.7	46.6	57.2	53.1	65.6	76.1	39.8	44	55						melting point: 88 to 90 °C; inhibition at 0.2 µM [5]: 18.2%; inhibition at 2 µM [5]: 69.1%; inhibition at 20 µM [5]: 90.7%; inhibition at 0.2 µM [7]: 91.7%; inhibition at 2 µM [7]: 97.3%; inhibition at 20 µM [7]: 98.3%
CC(C)C[C@H](NC(=O)[C@H](Cc1ccccc1)NC(=O)NCc1cccc(Cl)c1Cl)B(O)O [Example 20, N-L-phenylalanyl-L-leucine borate-N′-(2,3-dichloro-benzylamine)-urea]	-23	-26.6	-28.9	32.2	42.2	45.5	50	47.1	50.2	65	68.2	69.3	17.4	42.5	75.7	0.0175	0.00733	0.026	0.0378	117	melting point: 119 to 122 °C; inhibition at 0.2 µM [5]: 35.6%; inhibition at 2 µM [5]: 83.7%; inhibition at 20 µM [5]: 92.6%; inhibition at 0.2 µM [7]: 91.9%; inhibition at 2 µM [7]: 96.5%; inhibition at 20 µM [7]: 97%; IC50 [9]: 46.3 nM; IC50 [10]: 25.1 nM; IC50 [11]: 23 nM; IC50 [12]: 1020 nM; IC50 [13]: 20.1 nM; IC50 [14]: 80.3 nM; IC50 [16]: 41 nM; IC50 [17]: 27 nM; IC50 [18]: 42.2 nM
CC(C)C[C@H](NC(=O)[C@H](Cc1ccccc1)NC(=O)N1CCc2ccccc2C1)B(O)O [Example 28, N-L-phenylalanyl-L-leucine borate-N′-1,2,3,4-tetrahydroisoquinoline-urea]																0.00498	0.00396	0.00838	0.0194	532	IC50 [1]: 20 nM; IC50 [5]: 2380 nM
CC(C)C[C@H](NC(=O)[C@H](Cc1ccccc1)NC(=O)NCc1ccc(F)c(F)c1)B(O)O [Example 35, N-L-phenylalanyl-L-leucine borate-N′-3,4-difluoro-benzylamine-urea]																0.0167	0.0067	0.019	0.0388	255	IC50 [1]: 110 nM; IC50 [5]: 340 nM; IC50 [7]: 2 nM
CC(C)C[C@H](NC(=O)[C@H](Cc1ccccc1)NC(=O)c1cnccn1)B(O)O [positive control, bortezomib, reference compound]				27.6	32.8	40.7	41	43.6	46.8	59.9	63.8	66.1	41.6	43.2	47.3	0.00654	0.00578	0.00161	0.0366	224	IC50 ([8]; MGC80-3, MTT, value ± spread, read-out: IC50 (μM), growth of stomach cancer cells (MGC80-3)): 0.0057 ± 0.001 µM; IC50 [17]: 7.6 nM
